PMC9632963, “Preclinical characterization and phase I clinical trial of CT053PTSA targets MET, AXL, and VEGFR2 in patients with advanced solid tumors” (Frontiers in Immunology, 2022)

Test system: patients with advanced solid tumors
Experiment: Phase I trial: safety, tolerability, DLT, MTD (CTCAE v4.0)
Format: in vivo
Source text: Eligible patients had at least one measurable lesion per RECIST v 1.1, Eastern Cooperative Oncology Group (ECOG) performance status of 0 or 1, and adequate hematological, renal, cardiac and hepatic functions. The primary objectives were to assess safety and tolerability as well as to determine the MTD, DLT, and dose recommended for further study. The secondary objectives were to assess the PK and preliminary efficacy of CT053PTSA.
An initial accelerated titration design was used in the 15 and 30 mg QD cohorts, and the “3+3” schema was used starting in the 60 mg QD cohort. […] The study protocol was approved by an institutional review board at Sun Yat-sen University Cancer Center. Written informed consent was obtained from all the patients before enrollment.
Descriptive statistics of safety are presented per CTCAE v4.0. Subjects who received at least one dose of CT053PTSA were considered eligible to be evaluated and included in safety analyses. […] According to the RECIST 1.1 criteria, imaging examinations were performed at each specified time point in the protocol. The antitumor activity was measured by RECIST1.1.

## Cc1c(C(=O)Nc2ccc(Oc3ccnc4cc(OCC(C)(C)O)ccc34)c(F)c2)c(=O)n(-c2ccccc2)n1C [CT053PTSA]
15mg (n = 1)
  Anaemia, All: 0 n (%)
  Anaemia, ≥ G3: 0 n (%)
  Blood chloride decreased, All: 0 n (%)
  Blood chloride decreased, ≥ G3: 0 n (%)
  Blood creatinine increased, All: 0 n (%)
  Blood creatinine increased, ≥ G3: 0 n (%)
  Blood potassium decreased, All: 0 n (%)
  Blood potassium decreased, ≥ G3: 0 n (%)
  Blood sodium decreased, All: 0 n (%)
  Blood sodium decreased, ≥ G3: 0 n (%)
  Blood uric acid increased, All: 0 n (%)
  Blood uric acid increased, ≥ G3: 0 n (%)
  Decreased appetite, All: 0 n (%)
  Decreased appetite, ≥ G3: 0 n (%)
  Diarrhea, All: 0 n (%)
  Diarrhea, ≥ G3: 0 n (%)
  Dizziness, All: 0 n (%)
  Dizziness, ≥ G3: 0 n (%)
  Dry mouth, All: 0 n (%)
  Dry mouth, ≥ G3: 0 n (%)
  Electrocardiogram QT prolonged, All: 0 n (%)
  Electrocardiogram QT prolonged, ≥ G3: 0 n (%)
  Electrolyte imbalance, All: 0 n (%)
  Electrolyte imbalance, ≥ G3: 0 n (%)
  Hemoglobin decreased, All: 0 n (%)
  Hemoglobin decreased, ≥ G3: 0 n (%)
  Hypertension, All: 0 n (%)
  Hypertension, ≥ G3: 0 n (%)
  Hyponatremia, All: 0 n (%)
  Hyponatremia, ≥ G3: 0 n (%)
  Hypoparathyroidism, All: 0 n (%)
  Hypoparathyroidism, ≥ G3: 0 n (%)
  Mouth ulceration, All: 0 n (%)
  Mouth ulceration, ≥ G3: 0 n (%)
  Nausea, All: 0 n (%)
  Nausea, ≥ G3: 0 n (%)
  Oropharyngeal pain, All: 0 n (%)
  Oropharyngeal pain, ≥ G3: 0 n (%)
  Pain, All: 0 n (%)
  Pain, ≥ G3: 0 n (%)
  Palmar-plantar erythrodysaesthesia syndrome, All: 0 n (%)
  Palmar-plantar erythrodysaesthesia syndrome, ≥ G3: 0 n (%)
  Platelet count decreased, All: 0 n (%)
  Platelet count decreased, ≥ G3: 0 n (%)
  Proteinuria, All: 0 n (%)
  Proteinuria, ≥ G3: 0 n (%)
  Pyrexia, All: 0 n (%)
  Pyrexia, ≥ G3: 0 n (%)
  Sinus bradycardia, All: 0 n (%)
  Sinus bradycardia, ≥ G3: 0 n (%)
  Stomatitis, All: 0 n (%)
  Stomatitis, ≥ G3: 0 n (%)
  Vomiting, All: 0 n (%)
  Vomiting, ≥ G3: 0 n (%)
  leukopenia, All: 1 (100) n (%)
  leukopenia, ≥ G3: 0 n (%)
  neutropenia, All: 0 n (%)
  neutropenia, ≥ G3: 0 n (%)
  transaminase elevation, All: 1 (100) n (%)
  transaminase elevation, ≥ G3: 0 n (%)
30mg (n = 1)
  Anaemia, All: 0 n (%)
  Anaemia, ≥ G3: 0 n (%)
  Blood chloride decreased, All: 0 n (%)
  Blood chloride decreased, ≥ G3: 0 n (%)
  Blood creatinine increased, All: 0 n (%)
  Blood creatinine increased, ≥ G3: 0 n (%)
  Blood potassium decreased, All: 0 n (%)
  Blood potassium decreased, ≥ G3: 0 n (%)
  Blood sodium decreased, All: 0 n (%)
  Blood sodium decreased, ≥ G3: 0 n (%)
  Blood uric acid increased, All: 0 n (%)
  Blood uric acid increased, ≥ G3: 0 n (%)
  Decreased appetite, All: 1 (100) n (%)
  Decreased appetite, ≥ G3: 0 n (%)
  Diarrhea, All: 0 n (%)
  Diarrhea, ≥ G3: 0 n (%)
  Dizziness, All: 0 n (%)
  Dizziness, ≥ G3: 0 n (%)
  Dry mouth, All: 0 n (%)
  Dry mouth, ≥ G3: 0 n (%)
  Electrocardiogram QT prolonged, All: 0 n (%)
  Electrocardiogram QT prolonged, ≥ G3: 0 n (%)
  Electrolyte imbalance, All: 0 n (%)
  Electrolyte imbalance, ≥ G3: 0 n (%)
  Hemoglobin decreased, All: 0 n (%)
  Hemoglobin decreased, ≥ G3: 0 n (%)
  Hypertension, All: 0 n (%)
  Hypertension, ≥ G3: 0 n (%)
  Hyponatremia, All: 1 (100) n (%)
  Hyponatremia, ≥ G3: 0 n (%)
  Hypoparathyroidism, All: 0 n (%)
  Hypoparathyroidism, ≥ G3: 0 n (%)
  Mouth ulceration, All: 0 n (%)
  Mouth ulceration, ≥ G3: 0 n (%)
  Nausea, All: 0 n (%)
  Nausea, ≥ G3: 0 n (%)
  Oropharyngeal pain, All: 0 n (%)
  Oropharyngeal pain, ≥ G3: 0 n (%)
  Pain, All: 0 n (%)
  Pain, ≥ G3: 0 n (%)
  Palmar-plantar erythrodysaesthesia syndrome, All: 0 n (%)
  Palmar-plantar erythrodysaesthesia syndrome, ≥ G3: 0 n (%)
  Platelet count decreased, All: 0 n (%)
  Platelet count decreased, ≥ G3: 0 n (%)
  Proteinuria, All: 0 n (%)
  Proteinuria, ≥ G3: 0 n (%)
  Pyrexia, All: 0 n (%)
  Pyrexia, ≥ G3: 0 n (%)
  Sinus bradycardia, All: 0 n (%)
  Sinus bradycardia, ≥ G3: 0 n (%)
  Stomatitis, All: 0 n (%)
  Stomatitis, ≥ G3: 0 n (%)
  Vomiting, All: 0 n (%)
  Vomiting, ≥ G3: 0 n (%)
  leukopenia, All: 0 n (%)
  leukopenia, ≥ G3: 0 n (%)
  neutropenia, All: 0 n (%)
  neutropenia, ≥ G3: 0 n (%)
  transaminase elevation, All: 0 n (%)
  transaminase elevation, ≥ G3: 0 n (%)
60mg (n = 6)
  Anaemia, All: 0 n (%)
  Anaemia, ≥ G3: 0 n (%)
  Blood chloride decreased, All: 0 n (%)
  Blood chloride decreased, ≥ G3: 0 n (%)
  Blood creatinine increased, All: 0 n (%)
  Blood creatinine increased, ≥ G3: 0 n (%)
  Blood potassium decreased, All: 0 n (%)
  Blood potassium decreased, ≥ G3: 0 n (%)
  Blood sodium decreased, All: 0 n (%)
  Blood sodium decreased, ≥ G3: 0 n (%)
  Blood uric acid increased, All: 0 n (%)
  Blood uric acid increased, ≥ G3: 0 n (%)
  Decreased appetite, All: 0 n (%)
  Decreased appetite, ≥ G3: 0 n (%)
  Diarrhea, All: 0 n (%)
  Diarrhea, ≥ G3: 0 n (%)
  Dizziness, All: 0 n (%)
  Dizziness, ≥ G3: 0 n (%)
  Dry mouth, All: 0 n (%)
  Dry mouth, ≥ G3: 0 n (%)
  Electrocardiogram QT prolonged, All: 1 (16.7) n (%)
  Electrocardiogram QT prolonged, ≥ G3: 0 n (%)
  Electrolyte imbalance, All: 0 n (%)
  Electrolyte imbalance, ≥ G3: 0 n (%)
  Hemoglobin decreased, All: 0 n (%)
  Hemoglobin decreased, ≥ G3: 0 n (%)
  Hypertension, All: 0 n (%)
  Hypertension, ≥ G3: 0 n (%)
  Hyponatremia, All: 0 n (%)
  Hyponatremia, ≥ G3: 0 n (%)
  Hypoparathyroidism, All: 0 n (%)
  Hypoparathyroidism, ≥ G3: 0 n (%)
  Mouth ulceration, All: 0 n (%)
  Mouth ulceration, ≥ G3: 0 n (%)
  Nausea, All: 0 n (%)
  Nausea, ≥ G3: 0 n (%)
  Oropharyngeal pain, All: 0 n (%)
  Oropharyngeal pain, ≥ G3: 0 n (%)
  Pain, All: 0 n (%)
  Pain, ≥ G3: 0 n (%)
  Palmar-plantar erythrodysaesthesia syndrome, All: 0 n (%)
  Palmar-plantar erythrodysaesthesia syndrome, ≥ G3: 0 n (%)
  Platelet count decreased, All: 1 (16.7) n (%)
  Platelet count decreased, ≥ G3: 0 n (%)
  Proteinuria, All: 0 n (%)
  Proteinuria, ≥ G3: 0 n (%)
  Pyrexia, All: 0 n (%)
  Pyrexia, ≥ G3: 0 n (%)
  Sinus bradycardia, All: 0 n (%)
  Sinus bradycardia, ≥ G3: 0 n (%)
  Stomatitis, All: 0 n (%)
  Stomatitis, ≥ G3: 0 n (%)
  Vomiting, All: 0 n (%)
  Vomiting, ≥ G3: 0 n (%)
  leukopenia, All: 1 (16.7) n (%)
  leukopenia, ≥ G3: 0 n (%)
  neutropenia, All: 1 (16.7) n (%)
  neutropenia, ≥ G3: 0 n (%)
  transaminase elevation, All: 3 (50) n (%)
  transaminase elevation, ≥ G3: 0 n (%)
100mg (n = 7)
  Anaemia, All: 1 (14.3) n (%)
  Anaemia, ≥ G3: 0 n (%)
  Blood chloride decreased, All: 1 (14.3) n (%)
  Blood chloride decreased, ≥ G3: 0 n (%)
  Blood creatinine increased, All: 0 n (%)
  Blood creatinine increased, ≥ G3: 0 n (%)
  Blood potassium decreased, All: 0 n (%)
  Blood potassium decreased, ≥ G3: 0 n (%)
  Blood sodium decreased, All: 0 n (%)
